The values that follow come from PubChem BioAssay AID1963429 (Molecular Pharmacology Branch, DTP, NCI, 2024).

The assay has as its system 126254-015-R-J1-PDC complex spheroid growth, % test/control. Kind of assay: Anticancer human tumor 126254-015-R-J1-PDC patient-derived soft tissue sarcoma cell line growth inhibition [Asc]. To be noted: for viability, T/C: stronger effect = lower value. Summed up:
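Tumor cells were grown as complex spheroids with human endothelial cells (HUVEC) and human mesenchymal stem cells as stroma. Agents were tested alone and in combination, in half-log steps down from the clinical Cmax, or from 10 microM where Cmax was unknown.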

Where [1] appears, read: compound alone, run of 09/27/2022.

Molecules are shown by their SMILES. Values joined by “and” are separate entries in the source; they are usually repeats but may differ in a detail not shown here. Identical values can stand only once.
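Further: spheroids exposed to compound for seven days.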
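Wherever viability, T/C is given: 100% = DMSO vehicle control wells.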

With `O=C(c1cc(Cc2n[nH]c(=O)c3ccccc23)ccc1F)N1CCN(C(=O)C2CC2)CC1` + CCN1C(C(=O)NC23CCC(C(=O)O)(CC2)CC3)C(c2cccc(Cl)c2F)C2(C(=O)Nc3cc(Cl)ccc32)C12CCCCC2, the IC50 (as a rule, the concentration needed to halve the response being measured) runs as follows: (curve of first compound, second compound 0.03 µM) more than 10000 nM; (curve of first compound, second compound 0.0949 µM) more than 10000 nM; (curve of first compound, second compound 0.3 µM) more than 10000 nM; (curve of first compound, second compound 0.949 µM) more than 10000 nM; (curve of first compound, second compound 3 µM) more than 10000 nM. The viability, T/C (as a rule, the ratio of treated to control) is, setting by setting: (second compound 0.03 µM, first compound 0.0316 µM) 95.7%; (second compound 0.03 µM, first compound 0.1 µM) 87.7%; (second compound 0.03 µM, first compound 0.316 µM) 90.3%; (second compound 0.03 µM, first compound 1 µM) 74.5%; (second compound 0.03 µM, first compound 3.16 µM) 84.1%; (second compound 0.03 µM, first compound 10 µM) 60%. Also, the viability, T/C runs as follows: (second compound 0.0949 µM, first compound 0.0316 µM) 95.5%; (second compound 0.0949 µM, first compound 0.1 µM) 100%; (second compound 0.0949 µM, first compound 0.316 µM) 87.7%; (second compound 0.0949 µM, first compound 1 µM) 97.4%; (second compound 0.0949 µM, first compound 3.16 µM) 83.2%; (second compound 0.0949 µM, first compound 10 µM) 59.2%. Besides, the viability, T/C was 98.4% (second compound 0.3 µM, first compound 0.0316 µM); 90.9% (second compound 0.3 µM, first compound 0.1 µM); 92.2% (second compound 0.3 µM, first compound 0.316 µM); 83.6% (second compound 0.3 µM, first compound 1 µM); 77.2% (second compound 0.3 µM, first compound 3.16 µM); 59% (second compound 0.3 µM, first compound 10 µM). The viability, T/C is 90% (second compound 0.949 µM, first compound 0.0316 µM); 97% (second compound 0.949 µM, first compound 0.1 µM); 93.6% (second compound 0.949 µM, first compound 0.316 µM); 83.9% (second compound 0.949 µM, first compound 1 µM); 73.8% (second compound 0.949 µM, first compound 3.16 µM); 59.3% (second compound 0.949 µM, first compound 10 µM). In addition, the viability, T/C was 88.8% (second compound 3 µM, first compound 0.0316 µM); 90.5% (second compound 3 µM, first compound 0.1 µM); 93.7% (second compound 3 µM, first compound 0.316 µM); 85.4% (second compound 3 µM, first compound 1 µM); 73.1% (second compound 3 µM, first compound 3.16 µM); 70.5% (second compound 3 µM, first compound 10 µM).
With `CCN1C(C(=O)NC23CCC(C(=O)O)(CC2)CC3)C(c2cccc(Cl)c2F)C2(C(=O)Nc3cc(Cl)ccc32)C12CCCCC2` (stereo not given), the viability, T/C is, setting by setting: (compound 0.00949 µM) 105% and 96.1%; (compound 0.03 µM) 95.4% [middle of 15 runs]; (compound 0.0949 µM) 96.8% [middle of 15 runs]; (compound 0.3 µM) 93.5% [middle of 15 runs]; (compound 0.949 µM) 96.8% [middle of 15 runs]. Further, the IC50 under setting [1] was more than 3000 nM and the concentration for half-maximal inhibition (IC50) (curve of compound) is more than 3000 nM.
On to `CNC(C)C(=O)NC1CN(S(=O)(=O)c2cccc(S(=O)(=O)N3CCC4CCC(C(=O)NC(c5ccccc5)c5ccccc5)N4C(=O)C(NC(=O)C(C)NC)C3)c2)CCC2CCC(C(=O)NC(c3ccccc3)c3ccccc3)N2C1=O` (stereo not given) + Cc1c(S(C)(=O)=O)c(-c2cc(F)cc(N3CCN(c4ccc(NS(=O)(=O)c5ccc(NC(CCN6CCC(C(=O)OCCCP(=O)(O)O)CC6)CSc6ccccc6)c(S(=O)(=O)C(F)(F)F)c5)cc4)CC3)c2)c(-c2ccc(Cl)cc2)n1C(C)C, for which the IC50 reads like this: (curve of first compound, second compound 0.1 µM) more than 1000 nM; (curve of first compound, second compound 0.316 µM) 90.5 nM; (curve of first compound, second compound 1 µM) 107 nM; (curve of first compound, second compound 3.16 µM) 74.8 nM; (curve of first compound, second compound 10 µM) 59.8 nM. The viability, T/C by setting is: (second compound 0.1 µM, first compound 0.00316 µM) 83%; (second compound 0.1 µM, first compound 0.01 µM) 84.8%; (second compound 0.1 µM, first compound 0.0316 µM) 67.3%; (second compound 0.1 µM, first compound 0.1 µM) 55.6%; (second compound 0.1 µM, first compound 0.316 µM) 56.2%; (second compound 0.1 µM, first compound 1 µM) 45%. For the same compound, the viability, T/C reads like this: (second compound 0.316 µM, first compound 0.00316 µM) 85.8%; (second compound 0.316 µM, first compound 0.01 µM) 81.9%; (second compound 0.316 µM, first compound 0.0316 µM) 63.1%; (second compound 0.316 µM, first compound 0.1 µM) 47.3%; (second compound 0.316 µM, first compound 0.316 µM) 49.7%; (second compound 0.316 µM, first compound 1 µM) 36.5%. Further, the viability, T/C runs as follows: (second compound 1 µM, first compound 0.00316 µM) 87.5%; (second compound 1 µM, first compound 0.01 µM) 81.5%; (second compound 1 µM, first compound 0.0316 µM) 66.9%; (second compound 1 µM, first compound 0.1 µM) 47.9%; (second compound 1 µM, first compound 0.316 µM) 46.9%; (second compound 1 µM, first compound 1 µM) 36.3%. Besides, the viability, T/C is, setting by setting: (second compound 3.16 µM, first compound 0.00316 µM) 90.7%; (second compound 3.16 µM, first compound 0.01 µM) 79%; (second compound 3.16 µM, first compound 0.0316 µM) 60.7%; (second compound 3.16 µM, first compound 0.1 µM) 46.1%; (second compound 3.16 µM, first compound 0.316 µM) 38.1%; (second compound 3.16 µM, first compound 1 µM) 32.6%. The viability, T/C was 80.2% (second compound 10 µM, first compound 0.00316 µM); 78.6% (second compound 10 µM, first compound 0.01 µM); 64.3% (second compound 10 µM, first compound 0.0316 µM); 38.2% (second compound 10 µM, first compound 0.1 µM); 30.6% (second compound 10 µM, first compound 0.316 µM); 27.8% (second compound 10 µM, first compound 1 µM).
`CCN1CCN(Cc2ccc(Nc3ncc(F)c(-c4cc(F)c5nc(C)n(C(C)C)c5c4)n3)nc2)CC1`: the viability, T/C by setting is: (compound 0.00316 µM) 99.2% and 102% (2×); (compound 0.01 µM) 104% and 97% and 96.8%; (compound 0.0316 µM) 109% (2×) and 99%; (compound 0.1 µM) 94.1% and 103% and 115%; (compound 0.316 µM) 114% and 110% and 112%; (compound 1 µM) 110% and 102% and 112%. Also, the IC50 (curve of compound) was more than 1000 nM.
In the case of `Cc1c(S(C)(=O)=O)c(-c2cc(F)cc(N3CCN(c4ccc(NS(=O)(=O)c5ccc(NC(CCN6CCC(C(=O)OCCCP(=O)(O)O)CC6)CSc6ccccc6)c(S(=O)(=O)C(F)(F)F)c5)cc4)CC3)c2)c(-c2ccc(Cl)cc2)n1C(C)C` (stereo not given), the viability, T/C by setting is: (compound 0.1 µM) 86.8% [middle of 14 runs]; (compound 0.316 µM) 85.8% [middle of 13 runs]; (compound 1 µM) 84.3% [middle of 14 runs]; (compound 3.16 µM) 87.8% [middle of 14 runs]; (compound 10 µM) 81.8% [middle of 14 runs]. Further, the half-maximal inhibitory concentration (IC50) under setting [1] was more than 10000 nM.
